Reference: ChEMBL document CHEMBL1201862, “PubChem BioAssay data set” (2004)
Active and inactive are the calls of the source.

Experiments:
Tumor necrosis factor = Tumor necrosis factor (Homo sapiens, UniProt P01375); assay: TNFa-triggered NF-kB activation inhibitors, SAR follow-up, cell-based, revised (AID 2337); type: functional
[1] = target: T1, Nucleotide-binding oligomerization domain-containing protein 1 (Homo sapiens, UniProt Q9Y239); assay: NOD1 signaling inhibitors, SAR follow-up, revised (AID 2333); type: functional
T1 sequence (Q9Y239 whole entry): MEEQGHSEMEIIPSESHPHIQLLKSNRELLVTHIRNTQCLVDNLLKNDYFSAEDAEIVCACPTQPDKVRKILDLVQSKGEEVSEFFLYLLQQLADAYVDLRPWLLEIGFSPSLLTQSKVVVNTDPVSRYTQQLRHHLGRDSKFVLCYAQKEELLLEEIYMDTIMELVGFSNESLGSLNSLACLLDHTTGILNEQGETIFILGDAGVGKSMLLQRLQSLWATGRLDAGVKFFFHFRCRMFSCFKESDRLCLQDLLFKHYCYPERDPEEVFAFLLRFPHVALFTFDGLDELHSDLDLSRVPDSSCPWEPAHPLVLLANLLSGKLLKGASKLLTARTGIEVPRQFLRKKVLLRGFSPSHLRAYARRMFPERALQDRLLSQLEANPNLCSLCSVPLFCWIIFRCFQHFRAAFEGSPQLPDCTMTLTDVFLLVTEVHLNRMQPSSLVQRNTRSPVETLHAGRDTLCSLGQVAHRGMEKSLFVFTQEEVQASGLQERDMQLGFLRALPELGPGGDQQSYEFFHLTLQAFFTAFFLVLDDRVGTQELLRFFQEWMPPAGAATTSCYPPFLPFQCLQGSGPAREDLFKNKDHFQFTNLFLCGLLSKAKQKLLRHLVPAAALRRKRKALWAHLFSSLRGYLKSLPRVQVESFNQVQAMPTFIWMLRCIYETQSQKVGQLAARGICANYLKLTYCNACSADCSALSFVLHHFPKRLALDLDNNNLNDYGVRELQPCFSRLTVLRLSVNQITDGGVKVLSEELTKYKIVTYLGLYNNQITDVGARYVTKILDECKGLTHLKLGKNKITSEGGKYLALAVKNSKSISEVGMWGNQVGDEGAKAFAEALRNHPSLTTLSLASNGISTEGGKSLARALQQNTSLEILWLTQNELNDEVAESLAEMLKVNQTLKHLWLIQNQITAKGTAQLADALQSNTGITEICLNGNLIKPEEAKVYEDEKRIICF

HEK293 = assay: cells; settings: Homo sapiens;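 further: cells exposed to compound for 14 hours overnight before viability readout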
[2] = target: T2, Ubiquitin-conjugating enzyme E2 N (Homo sapiens, UniProt P61088); type: functional
T2 sequence (P61088 whole entry): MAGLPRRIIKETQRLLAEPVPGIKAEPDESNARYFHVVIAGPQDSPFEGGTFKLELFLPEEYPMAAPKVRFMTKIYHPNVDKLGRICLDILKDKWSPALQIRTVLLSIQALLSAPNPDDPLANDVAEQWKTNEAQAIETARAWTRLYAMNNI

[3] = cytotoxicity in HEK-293T cells, dose response, cytotoxicity control for BCR NF-kB inhibitor project, luminescence, B-cell screen hits (AID 489021); type: functional, cell-based;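 further: HEK-293T cells carrying an NF-kB luciferase reporter; cells exposed to compound for about 14 hours before viability readout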
[4] = target: T3, Microphthalmia-associated transcription factor (Homo sapiens, UniProt O75030); assay: TRPM1 promoter luciferase signal decrease, dose response, MITF inhibitor project, cell-based, SK-MEL-5, cherry-picked, set 3 (AID 493073); type: functional
T3 sequence (O75030 whole entry): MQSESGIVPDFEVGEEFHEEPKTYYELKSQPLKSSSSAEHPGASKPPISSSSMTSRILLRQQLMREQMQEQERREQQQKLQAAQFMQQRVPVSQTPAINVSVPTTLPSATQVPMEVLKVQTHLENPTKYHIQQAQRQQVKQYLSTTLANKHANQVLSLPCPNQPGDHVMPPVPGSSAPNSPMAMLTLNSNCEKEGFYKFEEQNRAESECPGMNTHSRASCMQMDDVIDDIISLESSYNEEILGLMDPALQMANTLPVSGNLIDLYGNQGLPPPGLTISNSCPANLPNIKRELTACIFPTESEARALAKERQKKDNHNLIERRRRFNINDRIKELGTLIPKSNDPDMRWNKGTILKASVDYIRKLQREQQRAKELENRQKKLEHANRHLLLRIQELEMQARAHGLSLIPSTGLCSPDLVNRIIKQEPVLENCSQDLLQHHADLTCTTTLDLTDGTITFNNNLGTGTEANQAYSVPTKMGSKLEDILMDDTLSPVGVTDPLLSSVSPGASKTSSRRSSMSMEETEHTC

A-375 = assay: A375 melanoma cell viability reduction, dose response, counter-screen for MITF modulator project, cherry-pick samples, set 2 (AID 540335); type: functional, cell-based; settings: Homo sapiens
INS1 = assay: beta cell apoptosis inhibitors, cytokine rescue, dose response, luminescence, retest (AID 449756); type: functional, cell-based; settings: Rattus norvegicus;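 further: cell death triggered by IL-1 beta plus TNF-alpha plus IFN-gamma mixture; protective hits raise ATP signal compared with cytokine alone wells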
[5] = cytotoxicity toward NIH3T3 fibroblasts, dose response, counter-screen, cell-based, ATP luminescence, mouse fibroblasts (AID 2010); type: functional;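 further: cells exposed to compound for about 90 hours before reading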
[6] = inhibitors of intracellular T. cruzi replication, confirmation, NIH3T3 host cells, beta-gal luminescence (AID 2044); type: functional, cell-based;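 further: intracellular parasites grown in NIH/3T3 mouse fibroblasts as host cells; luminescent beta-galactosidase reporter signal from transgenic T. cruzi replicating inside host cells; inhibitors lower the luminescence signal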
Bcl-2-related protein A1 = target: T4, Bcl-2-related protein A1 (Mus musculus, UniProt Q07440); type: functional;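 further: confirmatory dose–response counterscreen on Bfl-1, used to check hits from a UBC13 polyubiquitin inhibitor campaign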
T4 sequence (Q07440 whole entry): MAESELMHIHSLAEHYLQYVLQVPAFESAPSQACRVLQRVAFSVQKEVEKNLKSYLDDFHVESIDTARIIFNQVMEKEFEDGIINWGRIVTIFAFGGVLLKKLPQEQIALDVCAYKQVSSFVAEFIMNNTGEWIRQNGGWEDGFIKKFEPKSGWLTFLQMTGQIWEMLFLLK

[7] = target: T2, Ubiquitin-conjugating enzyme E2 N; type: functional; remark: listed apart in the source
HeLa = assay: HeLa cell cytotoxicity, dose response, cytotoxicity control for MITF activator project, CellTiter-Glo luminescence, cherry-pick samples (AID 540259); type: functional, cell-based; settings: Homo sapiens
[8] = target: T5, Sentrin-specific protease 7 (Homo sapiens, UniProt Q9BQF6); type: functional;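 further: Luminescence-based dose-response confirmation of ultra-high-throughput screening hits, measuring inhibition of SENP7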
T5 sequence (Q9BQF6 whole entry): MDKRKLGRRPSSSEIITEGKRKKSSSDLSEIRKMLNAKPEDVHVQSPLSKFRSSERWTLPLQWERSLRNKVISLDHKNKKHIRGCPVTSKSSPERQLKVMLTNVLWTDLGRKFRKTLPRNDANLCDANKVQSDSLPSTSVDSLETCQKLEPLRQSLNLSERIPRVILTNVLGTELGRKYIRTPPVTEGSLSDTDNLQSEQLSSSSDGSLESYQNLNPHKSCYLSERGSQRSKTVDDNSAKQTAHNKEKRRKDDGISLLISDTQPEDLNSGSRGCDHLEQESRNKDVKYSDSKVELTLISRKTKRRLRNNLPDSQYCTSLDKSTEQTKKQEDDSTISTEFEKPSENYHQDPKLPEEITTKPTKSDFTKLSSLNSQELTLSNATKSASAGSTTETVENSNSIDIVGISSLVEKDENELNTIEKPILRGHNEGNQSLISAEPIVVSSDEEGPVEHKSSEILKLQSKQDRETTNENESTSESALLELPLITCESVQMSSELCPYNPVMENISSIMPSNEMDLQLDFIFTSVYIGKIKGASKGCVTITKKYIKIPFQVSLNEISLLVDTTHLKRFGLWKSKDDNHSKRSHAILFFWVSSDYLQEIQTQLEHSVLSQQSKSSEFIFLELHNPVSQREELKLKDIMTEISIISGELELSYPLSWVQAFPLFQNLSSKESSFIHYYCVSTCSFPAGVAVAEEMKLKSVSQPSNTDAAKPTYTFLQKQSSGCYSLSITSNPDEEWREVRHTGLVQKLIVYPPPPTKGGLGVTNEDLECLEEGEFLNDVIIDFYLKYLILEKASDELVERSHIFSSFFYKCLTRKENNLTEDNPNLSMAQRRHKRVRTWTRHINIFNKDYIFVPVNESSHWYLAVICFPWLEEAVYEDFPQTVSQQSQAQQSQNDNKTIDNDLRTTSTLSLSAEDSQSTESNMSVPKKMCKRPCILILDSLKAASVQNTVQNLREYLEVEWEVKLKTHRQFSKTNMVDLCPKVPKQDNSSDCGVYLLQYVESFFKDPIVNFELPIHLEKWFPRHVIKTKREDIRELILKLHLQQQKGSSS

Caspase-3 = target: T6, Caspase-3 (Homo sapiens, UniProt P42574); type: functional;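 further: Dose-response selectivity test against caspase-3 for candidate inhibitors of sentrin-specific proteases (SENPs)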
T6 sequence (P42574 whole entry): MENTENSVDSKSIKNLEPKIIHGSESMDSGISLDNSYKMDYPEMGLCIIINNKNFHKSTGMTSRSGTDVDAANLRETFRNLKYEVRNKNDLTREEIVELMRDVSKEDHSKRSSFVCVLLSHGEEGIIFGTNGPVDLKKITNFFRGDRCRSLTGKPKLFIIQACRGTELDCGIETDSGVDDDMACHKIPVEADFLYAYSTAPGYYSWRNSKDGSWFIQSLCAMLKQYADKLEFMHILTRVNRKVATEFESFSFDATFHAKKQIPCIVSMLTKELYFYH

[9] = target: T7, Sentrin-specific protease 8 (Homo sapiens, UniProt Q96LD8); type: functional;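 further: luminescence read-out of SENP8 inhibition, dose-response confirmation following an ultra-high-throughput screen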
T7 sequence (Q96LD8 whole entry): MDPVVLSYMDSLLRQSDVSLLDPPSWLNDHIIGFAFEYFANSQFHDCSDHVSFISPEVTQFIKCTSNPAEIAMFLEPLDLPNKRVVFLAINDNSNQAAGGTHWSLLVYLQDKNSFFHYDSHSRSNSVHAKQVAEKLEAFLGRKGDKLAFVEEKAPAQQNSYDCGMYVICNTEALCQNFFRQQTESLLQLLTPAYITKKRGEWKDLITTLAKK

[10] = target: T8, Sentrin-specific protease 6 (Homo sapiens, UniProt Q9GZR1); type: functional;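 further: Luminescence-based dose-response confirmatory assay of SENP6 inhibition, following up an ultra-high-throughput screen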
T8 sequence (Q9GZR1 whole entry): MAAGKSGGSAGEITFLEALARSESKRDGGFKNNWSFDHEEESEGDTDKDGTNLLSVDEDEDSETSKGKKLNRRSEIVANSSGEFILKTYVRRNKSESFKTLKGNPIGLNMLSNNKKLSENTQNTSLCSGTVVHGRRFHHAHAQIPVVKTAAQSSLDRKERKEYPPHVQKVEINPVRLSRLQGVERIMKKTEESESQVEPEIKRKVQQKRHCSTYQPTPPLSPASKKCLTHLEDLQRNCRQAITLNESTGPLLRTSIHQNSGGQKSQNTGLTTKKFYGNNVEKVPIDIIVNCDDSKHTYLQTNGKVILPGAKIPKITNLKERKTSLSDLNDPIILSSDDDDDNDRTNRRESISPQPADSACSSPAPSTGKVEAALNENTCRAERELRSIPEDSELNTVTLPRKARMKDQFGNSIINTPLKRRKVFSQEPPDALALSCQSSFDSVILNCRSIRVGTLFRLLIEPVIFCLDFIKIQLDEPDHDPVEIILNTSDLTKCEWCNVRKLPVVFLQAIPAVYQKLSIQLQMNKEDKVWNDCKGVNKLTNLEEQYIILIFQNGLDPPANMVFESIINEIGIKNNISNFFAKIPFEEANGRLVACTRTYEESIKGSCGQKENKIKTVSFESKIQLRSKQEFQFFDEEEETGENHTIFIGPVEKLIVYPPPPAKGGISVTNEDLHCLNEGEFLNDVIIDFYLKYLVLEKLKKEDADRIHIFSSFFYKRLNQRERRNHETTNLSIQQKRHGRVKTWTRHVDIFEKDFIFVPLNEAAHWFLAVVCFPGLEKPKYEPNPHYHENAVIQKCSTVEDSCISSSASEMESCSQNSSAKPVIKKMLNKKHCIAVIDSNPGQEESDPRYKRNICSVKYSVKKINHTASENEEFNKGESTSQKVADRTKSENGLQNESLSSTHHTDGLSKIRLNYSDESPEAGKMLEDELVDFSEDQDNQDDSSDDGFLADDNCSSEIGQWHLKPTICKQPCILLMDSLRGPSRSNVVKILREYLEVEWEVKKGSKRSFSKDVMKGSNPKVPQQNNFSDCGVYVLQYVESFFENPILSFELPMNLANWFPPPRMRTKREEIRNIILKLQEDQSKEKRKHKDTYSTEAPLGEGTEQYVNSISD

Escherichia coli = assay: microbe, parasite or virus in culture
[11] = target: T9, Type-1 angiotensin II receptor (Homo sapiens, UniProt P30556); assay: AT1 receptor antagonists, dose response, selectivity assay for APJ receptor antagonist project, cell-based, uHTS hits (AID 463214); type: functional;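 further: antagonist potency against angiotensin II stimulated AT1 response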
T9 sequence (P30556 whole entry): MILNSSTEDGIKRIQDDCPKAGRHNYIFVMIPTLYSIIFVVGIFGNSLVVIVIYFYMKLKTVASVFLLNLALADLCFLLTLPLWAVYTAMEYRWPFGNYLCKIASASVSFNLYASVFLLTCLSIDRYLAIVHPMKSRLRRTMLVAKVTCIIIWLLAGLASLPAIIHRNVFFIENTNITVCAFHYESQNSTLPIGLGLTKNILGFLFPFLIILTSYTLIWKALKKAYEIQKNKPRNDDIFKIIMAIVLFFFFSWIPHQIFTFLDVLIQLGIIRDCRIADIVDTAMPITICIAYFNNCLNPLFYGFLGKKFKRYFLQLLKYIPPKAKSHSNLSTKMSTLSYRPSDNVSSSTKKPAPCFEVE

Beta-galactosidase = Beta-galactosidase (Escherichia coli, UniProt Q8VNN2); assay: PubChem AID 485352; type: functional
Sequence of Beta-galactosidase (Q8VNN2 whole entry): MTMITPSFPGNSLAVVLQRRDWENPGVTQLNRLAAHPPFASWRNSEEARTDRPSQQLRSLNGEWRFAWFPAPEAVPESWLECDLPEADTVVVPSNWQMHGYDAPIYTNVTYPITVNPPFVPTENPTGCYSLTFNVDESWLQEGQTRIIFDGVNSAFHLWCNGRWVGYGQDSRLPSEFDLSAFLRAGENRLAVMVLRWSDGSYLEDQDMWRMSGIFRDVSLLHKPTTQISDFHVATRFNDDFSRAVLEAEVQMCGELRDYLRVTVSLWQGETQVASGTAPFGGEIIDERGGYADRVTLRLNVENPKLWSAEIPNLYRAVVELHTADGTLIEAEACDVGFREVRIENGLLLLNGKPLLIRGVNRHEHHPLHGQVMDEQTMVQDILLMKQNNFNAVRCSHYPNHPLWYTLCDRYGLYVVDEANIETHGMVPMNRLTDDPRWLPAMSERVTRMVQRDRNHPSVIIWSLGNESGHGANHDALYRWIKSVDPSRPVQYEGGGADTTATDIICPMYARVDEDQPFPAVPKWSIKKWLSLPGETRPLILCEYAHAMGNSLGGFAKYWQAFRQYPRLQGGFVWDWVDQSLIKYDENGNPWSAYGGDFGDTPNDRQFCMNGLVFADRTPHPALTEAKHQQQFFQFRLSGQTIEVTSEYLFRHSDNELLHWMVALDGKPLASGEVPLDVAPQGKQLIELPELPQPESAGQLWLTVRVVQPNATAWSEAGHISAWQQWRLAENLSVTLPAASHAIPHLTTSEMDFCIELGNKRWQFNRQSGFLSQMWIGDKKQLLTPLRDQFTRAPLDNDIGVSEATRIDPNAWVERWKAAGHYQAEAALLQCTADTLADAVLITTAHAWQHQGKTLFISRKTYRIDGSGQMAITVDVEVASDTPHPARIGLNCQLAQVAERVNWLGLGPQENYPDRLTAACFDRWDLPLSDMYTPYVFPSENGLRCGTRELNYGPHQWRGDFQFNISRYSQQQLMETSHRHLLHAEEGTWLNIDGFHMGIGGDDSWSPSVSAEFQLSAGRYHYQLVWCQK

Sequence of Tumor necrosis factor (P01375 whole entry, the tested form may be a part): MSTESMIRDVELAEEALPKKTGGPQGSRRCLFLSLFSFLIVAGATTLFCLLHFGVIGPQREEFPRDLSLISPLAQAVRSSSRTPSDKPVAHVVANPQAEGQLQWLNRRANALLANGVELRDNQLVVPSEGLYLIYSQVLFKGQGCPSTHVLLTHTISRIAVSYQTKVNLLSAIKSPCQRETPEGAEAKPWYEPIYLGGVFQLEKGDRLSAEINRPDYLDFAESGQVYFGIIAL

In the case of `COc1ccc2oc(C[S+]([O-])c3ccccc3)c(C(=O)O)c2c1` (configuration not stated), the IC50 (Tumor necrosis factor) was > 20 µM (inactive), the IC50 [1] was > 20 µM (inactive) and the IC50 (HEK293) was > 20 µM (inactive).

In the case of `CCC(C)(C)c1ccc(OCCCC[n+]2ccccc2)c(C(C)(C)CC)c1`, the IC50 [2] was 17.3 µM (active), the IC50 [3] was 59.7 µM (inactive) and the AC50 [4] was 4.35 µM (active). For the same compound, the AC50 (A-375) was 22.9 µM (active), the AC50 (INS1) was 2 µM (active) and the EC50 [5] was 19.7 µM (active). The EC50 [6] was 357 nM (active), the IC50 (Bcl-2-related protein A1) was > 20 µM (inactive) and the IC50 [7] was 16.9 µM (active).

In the case of `COC(=O)Cn1c(C)nc2c(sc3nc(C)cc(C)c32)c1=O`, the AC50 (HeLa) was > 350 µM (inactive).

For `Fc1ccccc1CSc1nnc(-c2ccccc2)o1`, the AC50 (HeLa) was 74 µM (active), the IC50 [8] was 12 µM (active) and the IC50 (Caspase-3) was 32 µM (active). The IC50 [9] was 53 µM (active) and the IC50 [10] was 36.1 µM (active).

For `CCOC(=O)C1(c2nc(N)cs2)COC(=O)C1` (configuration not stated), the AC50 (Escherichia coli) was 24.9 µM (active).

With `CCOc1ccc(NC(=O)CNC(=O)Cc2ccccc2)cc1` the AC50 (Escherichia coli) was 25 µM (active).

With `NNc1nc(-c2ccccc2)cc(-c2ccc(Br)cc2)n1` the IC50 [11] was 2.09 µM (active) and the EC50 (Beta-galactosidase) was > 40 µM (inactive).
